Test results as given in patent publication US11612572B2, “Treatment of schizophrenia using beta-caryophyllene and CB2 receptor agonists” (priority 2012, dated 2023).
“Also recorded” adds a separate entry of the source.

Assays:
[1] = tested on: mouse model of schizophrenia; assay: Open-field test (ambulation/crossing, rearing, grooming)
[2] = orally-administered; cited from earlier work
[3] = tested on: mouse model of schizophrenia; assay: Behavior in the Phenotyper cage; assay type: in vivo, mice; settings: Study II
[4] = tested on: mouse model of schizophrenia; assay: Prepulse inhibition (PPI) of the startle reflex; settings: for % inhibition (ability to adjust to sound stimulus, PPI): Study I, age 8 weeks
cannabinoid receptor CB2 = cannabinoid receptor CB2 (Homo sapiens, UniProt P34972); settings: cited from earlier work
[5] = in vivo; cited from earlier work
[6] = Body weight of mice in the neonatal PCP model
[7] = tested on: mouse model of schizophrenia; assay: Elevated Plus Maze test; settings: for time spent in the distal end of the opened arm (anxiety): Study I, age 13 weeks
[8] = Study III: male mice, PND 17, PCP 5 mg/kg, 1 h later BCP 10 mg/kg or BCP+AM630 10 mg/kg each, DMSO-based vehicle
[9] = Study II, PND 68, saline-treated mice

Sequence of cannabinoid receptor CB2 (P34972 whole entry): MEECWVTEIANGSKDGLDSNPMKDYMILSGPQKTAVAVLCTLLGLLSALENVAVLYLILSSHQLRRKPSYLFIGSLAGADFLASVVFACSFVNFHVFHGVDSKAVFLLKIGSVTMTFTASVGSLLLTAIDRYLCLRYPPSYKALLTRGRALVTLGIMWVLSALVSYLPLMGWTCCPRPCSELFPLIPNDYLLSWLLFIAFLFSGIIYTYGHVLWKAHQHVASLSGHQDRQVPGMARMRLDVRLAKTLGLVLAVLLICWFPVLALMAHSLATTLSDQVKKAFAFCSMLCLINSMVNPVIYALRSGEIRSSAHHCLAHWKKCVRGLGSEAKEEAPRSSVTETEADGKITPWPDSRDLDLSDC

beta-caryophyllene [BCP]
ambulation ([1]; Study I, DMSO-based carrier, PND 17, males (FIG. 12A)): completely reversed the effects of PCP
rearing behavior ([1]; Study I, DMSO-based carrier, PND 17, males (FIG. 12B)): completely reversed the effects of PCP
rearing ([1]; Study I, ethanol-based vehicle, PND 17 (FIG. 2B)): reversed the effects of PCP on rearing and exploration
ambulation (exploration) ([1]; Study I: PCP 5 mg/kg, BCP 10 mg/kg, ethanol-based vehicle, PND 17 (FIG. 2A)): reversed the effects of PCP on rearing and exploration
ambulation ([1]; Study I, PND 17, females): reversed a proportion of the effects of PCP on ambulation and rearing behavior of female mice
rearing behavior ([1]; Study I, PND 17, females): reversed a proportion of the effects of PCP on ambulation and rearing behavior of female mice
locomotor activity ([1]; Study I, PND 17, males): appeared to be less sensitive to the treatment of PCP or PCP+BCP
rearing and exploration behaviors ([1]; Study I, PND 35-37, females (FIGS. 4E, 4F)): no differences in rearing and exploration behaviors were seen between the different groups
rearing behavior ([1]; Study I, PND 35-37, males (FIG. 4B)): significantly reduced rearing behavior as compared to vehicle and PCP-treated groups
locomotor activity ([1]; Study I, PND 35-37, males (FIG. 4C)): reduced locomotor activity; also recorded: significantly reversed the effect of PCP in males
exploration ([1]; Study II: BCP in adolescence compared with saline-treated mice, PND 63): significantly inhibited the exploration of mice compared with saline-treated mice
ambulation ([1]; Study II: neonatal PCP, BCP 5 mg/kg PND 43-61, PND 63, male and female): significantly reversed the effect of PCP on ambulation in male and female mice
rearing ([1]; Study II, PND 63, females and males (FIGS. 15A-15C)): reversed the effect of PCP on rearing in both females and males
exploratory behavior ([1]; Study II, PND 104, females (last BCP treatment PND 61)): a relapse in exploratory behavior was evident
self-grooming (total, without stimuli) ([1]; Study II, PND 104, females or males): did not reverse the effect of PCP on self-grooming; also recorded: did not reverse the effect of PCT on grooming
exploration ([1]; Study II, PND 104, males): improved exploration and rearing behaviors of male PCP treated mice
rearing behavior ([1]; Study II, PND 104, males): still significantly higher than that of PCP-treated mice with no BCP treatment; also recorded: improved exploration and rearing behaviors of male PCP treated mice
ambulation [1, 8]: reversed the effects of PCP on rearing and exploration
rearing [1, 8]: reversed the effects of PCP on rearing and exploration
oral absorption / systemic availability [2]: absorbed by the digestive tract and becomes systemically available
time spent in the food zone ([3]; PND 91): did not affect the time spend in the food zone
time spent at the drinking zone ([3]; PND 91, compared with PCP-treated group): appeared to reduce the time spend at the drinking zone
frequency of entries to the wheel ([3]; PND 91, females and males): reversed the effects of PCP on the frequency of entries to the wheel; also recorded: reversed the effects of PCP on frequency of entries to the wheel
time spent in the Hidden Zone ([3]; PND 91, females and males): reversed the effects of PCP on the time spend in the Hidden Zone; also recorded: reversed the effects of PCP on the time spent in the hidden zone
frequency of entries to the hidden zone ([3]; PND 91, males (FIG. 20D)): reversed the effect of PCP in males
frequency of entries to the Wheel Zone ([3]; PND 105): appeared to reduce the effect of PCP on the frequency of entries to the Wheel Zone
frequency of entries to the hidden zone ([3]; PND 105): reversed the effects of PCP on the frequency of entries to the hidden zone; also recorded: reversed the effect of PCP on frequency of entries to hidden zone
time spent at the hidden zone ([3]; PND 105): reversed the effects of PCP on the time spend at the hidden zone; also recorded: reversed the effect of PCP on time spent at the hidden zone
time spent in the wheel ([3]; PND 105): showed a trend to reverse the effect of PCP on the time spend in the wheel
% inhibition (ability to adjust to sound stimulus, PPI) ([4]; females (FIG. 5D)): No significant difference
% inhibition (ability to adjust to sound stimulus, PPI) ([4]; males (FIG. 5B)): reversed this effect; also recorded: significantly reversed the effect of PCP on the sensorimotor-gate in males
response to startle at the end of the PPI test ([4]; Study II, PND 68 (FIGS. 18A-18C)): did not affect the response to startle at the end of the PPI test
pre-pulse inhibition (% PPI) ([4]; Study II, PND 68, PCP-treated mice (FIG. 16A)): significantly reversed the effect of PCP on pre-pulse inhibition; also recorded: reversed the effect of PCP on PPI
response to pre-pulse tones ([4]; Study II, PND 68, PCP-treated mice (FIGS. 17A-17C)): significantly reversed the effect of PCP on response to pre-pulse tones; also recorded: reversed the effect of PCP on the response to tone
startle response ([4]; Study II, PND 68, females (FIG. 16B)): significantly reversed the effect of PCP on startle response in females
response to the startle stimuli ([4]; Study II, PND 68, males (FIG. 16C)): no difference in the response to the startle stimuli between groups
pre-pulse inhibition (% PPI) [4, 9]: no substantial effect on saline-treated mice
response to pre-pulse tones [4, 9]: no effect on saline-treated mice
response to the startle stimuli (120 dB) ([4]; Study II, PND 106 (FIGS. 25A-25C)): no difference in the response to the startle stimuli (120 dB) between groups
response to tones ([4]; Study II, PND 106 (FIGS. 25D-25F)): reversed the effect of PCP on the response to tones
% pre-pulse inhibition (PPI) ([4]; Study II, PND 106 (FIGS. 25G-25I)): reversed the effect of PCP on the % pre-pulse inhibition; also recorded: reversed the effect of PCP on attention at PND106
activity at CB2 receptor (cannabinoid receptor CB2): CB2-receptor agonist
toxicity [5]: apparent substantial non-toxicity
body weight ([6]; Study I, BCP 10 mg/kg in DMSO-based vehicle (FIG. 12C)): completely reversed the effect of PCP on body weight
body weight ([6]; Study I, ethanol-based vehicle, PND 7 / first week of life (FIG. 1B)): reversed the reduction in body weight during the first week of life
body weight ([6]; Study I: PCP 5 mg/kg PND 3-16, BCP 10 mg/kg 1 h after PCP, ethanol-based vehicle, each day of injection PND 3-17 (FIG. 1A)): did not restore the weight completely
body weight ([6]; Study I, PND 17 (FIG. 2C)): no significant difference between groups treated with PCP with or without BCP
body weight ([6]; Study I, PND 17, males (FIG. 3A)): appeared to be more prominent
body weight ([6]; Study I, PND 35-37, females (FIG. 4D)): significantly reversed the effect of PCP on female body weight
body weight ([6]; Study I, PND 35-37, males (FIG. 4A)): no significant difference in male body weight between the groups
body weight ([6]; Study II: BCP 5 mg/kg twice a week on PND 43-61 (FIG. 14A)): did not affect body weight
body weight ([6]; Study II, PND 104): did not increase body weight in females and males, rather reduced body weight of PCP+BCP treated group
time spent in the distal end of the opened arm (anxiety) ([7]; females (FIGS. 6E, 6G)): reversed this effect; also recorded: reversed both effects
time spent in the distal end of the opened arm (anxiety) ([7]; males (FIGS. 6F, 6H)): reversed this effect; also recorded: reversed both effects
behavior in the Plus Maze test ([7]; Study II, PND 64 (FIGS. 19A-19F)): did not reverse the effects of PCP on behavior in the Plus Maze test
